Measured values published in patent US8088796B2, “Triamine derivative” (Daiichi Sankyo Company, Limited, priority 2005, dated 2012).
Where a name gives a salt, the structure may show the parent alone.

How the values were obtained:
Human blood plasma = assay: Determination of prothrombin time (PT); type: biochemical; settings: concentration at which PT is doubled, Thromboplastin C Plus, linear regression
Experimental: Determination of Prothrombin Time (PT)
Human blood plasma (50 μl) was added to 50 μl of each test compound dissolved in 4% DMSO/physiological saline, and the mixture was pre-incubated at 37° C. for 1 minute. Subsequently, 100 μl of 0.5 U/ml Thromboplastin C Plus (Dade Behring) was added to initiate the reaction. The coagulation time was measured using Amelung KC-10A micro coagulometer (MC Medical). As a control, 4% DMSO/physiological saline was used in place of the test compound. The concentration at which PT is doubled (PTCT2) was calculated by linear regression.

[1] = Test for oral administration (plasma concentration); type: in vivo; settings: 1 mg/kg, monkey, fasted, 1 mg/2 mL/kg as free form in 0.5% methyl cellulose, plasma 0.5-24 h, HPLC/MS/MS
Experimental: Test for Oral Administration
To a monkey which had been fasted for over 15 hours, each test compound was orally administered in a free form at a dose of 1 mg/2 mL/kg. The test compound was dissolved or suspended in a 0.5% methyl cellulose solution. Before and 0.5, 1, 2, 4, 8 and 24 hours after the administration, the blood was collected at a ratio of 9 volumes to 1 volume of […] (total 1 ml). The blood was centrifuged (3000 rpm, 10 minutes, 4° C.), and the plasma was collected by separation. The separated plasma was pre-treated, and was subjected to measurement with HPLC/MS/MS, to calculate the plasma concentration from the areas under peak of the internal standard material and the test compound given by SRM chromatography using a calibration curve.

human FXa = target: T1, human FXa (Homo sapiens, UniProt P00742); assay: Determination of human FXa inhibitory effect (IC50 value); type: biochemical; settings: substrate S-2222, absorbance at 405 nm, room temperature, read-out: FXaIC50
T1 construct: purchased Enzyme Research Laboratories, Inc
T1 sequence (P00742 235-488 limits assumed): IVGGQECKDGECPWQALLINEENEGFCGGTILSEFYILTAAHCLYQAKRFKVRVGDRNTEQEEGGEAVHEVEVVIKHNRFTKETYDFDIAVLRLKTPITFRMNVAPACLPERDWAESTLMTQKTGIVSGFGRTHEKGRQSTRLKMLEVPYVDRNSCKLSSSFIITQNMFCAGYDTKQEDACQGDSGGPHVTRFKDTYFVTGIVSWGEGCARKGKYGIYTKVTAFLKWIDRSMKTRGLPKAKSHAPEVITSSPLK
T1 sequence (P00742 41-179 partner limits assumed): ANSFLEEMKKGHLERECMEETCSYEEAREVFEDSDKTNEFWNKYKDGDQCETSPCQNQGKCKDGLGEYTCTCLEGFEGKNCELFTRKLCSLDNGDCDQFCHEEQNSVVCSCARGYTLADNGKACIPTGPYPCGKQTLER
Experimental: Determination of Human FXa Inhibitory Effect (IC50 Value)
To each well of a 96-well microplate, 10 μl of 5% DMSO solutions of each test compound, the concentrations of which were appropriately prepared stepwise, 40 μl of Tris buffer (100 mM Tris, 200 mM potassium chloride, 0.2% BSA, pH 7.4) and 10 μl of 0.0625 U/ml human FXa (Enzyme Research Laboratories, Inc. dissolved and diluted with Tris buffer) were added, and 40 μl of a 750 μM aqueous solution of S-2222 (Chromogenix Co.) was added. Absorbance at 405 nm was measured for 10 minutes at room temperature to determine an increase in absorbance (ΔOD/min). As a control, Tris buffer was used in place of the test compound.
The rate of inhibition (%) at the final concentration of the test compound calculated using the following equation and the final concentration of the test compound were plotted as ordinate and as abscissa, respectively on a logarithmic normal probability paper, to determine the 50% inhibition dose (IC^50 value). Rate of inhibition (%)=(1−(ΔOD/min) of test compound[…](ΔOD/min) of control)×100

SMILES | AUC [1] | IC50 (human FXa) | PTCT2 (Human blood plasma)
COCC(=O)N1CC[C@H](NC(=O)C(=O)Nc2ccc(Cl)cn2)[C@H](NC(=O)c2nc3c(s2)CN(C)CC3)C1.Cl [Compound A, N^1-(5-chloropyridin-2-yl)-N^2-((3R,4S)-1-(2-methoxyacetyl)-3-{[(5-methyl-4,5,6,7-tetrahydrothiazolo[5,4-c]pyridin-2-yl)carbonyl]amino}piperidin-4-yl)ethanediamide hydrochloride, reference compound] | 157 ng·h/mL | 2.3 nM | 0.37 µM
CN1CCc2nc(C(=O)N[C@@H]3CN(C=O)CC[C@@H]3NC(=O)C(=O)Nc3ccc(Cl)cn3)sc2C1 [Example 8, N^1-(5-chloropyridin-2-yl)-N^2-((3R,4S)-1-formyl-3-{[(5-methyl-4,5,6,7-tetrahydrothiazolo[5,4-c]pyridin-2-yl)carbonyl]amino}piperidin-4-yl)ethanediamide hydrochloride] | 826 ng·h/mL | 2.2 nM | 0.26 µM
O=CN1CC[C@H](NC(=O)C(=O)Nc2ccc(Cl)cn2)[C@H](NC(=O)c2nc3c(s2)COCC3)C1 [Example 38, N^1-(5-chloropyridin-2-yl)-N^2-((3R,4S)-3-{[(6,7-dihydro-4H-pyrano[4,3-d]thiazol-2-yl)carbonyl]amino}-1-formylpiperidin-4-yl)ethanediamide] | 880 ng·h/mL | 3 nM | 0.50 µM

These reach a lower IC50 (human FXa). Values come first.

AUC [1] | IC50 (human FXa) | SMILES | PTCT2 (Human blood plasma)
482 ng·h/mL | 1.6 nM | CC(=O)N1CC[C@H](NC(=O)C(=O)Nc2ccc(Cl)cn2)[C@H](NC(=O)c2nc3c(s2)CN(C)CC3)C1 [Example 9, N^1-((3R,4S)-1-acetyl-3-{[(5-methyl-4,5,6,7-tetrahydrothiazolo[5,4-c]pyridin-2-yl)carbonyl]amino}piperidin-4-yl)-N^2-(5-chloropyridin-2-yl)ethanediamide hydrochloride] | 0.25 µM
899 ng·h/mL | 0.9 nM | CN1CCc2nc(C(=O)N[C@@H]3CN(C=O)CC[C@@H]3NC(=O)C(=O)Nc3ccc(Cl)s3)sc2C1 [Example 23, N^1-(5-chlorothiophen-2-yl)-N^2-((3R,4S)-1-formyl-3-{[(5-methyl-4,5,6,7-tetrahydrothiazolo[5,4-c]pyridin-2-yl)carbonyl]amino}piperidin-4-yl)ethanediamide hydrochloride] | 0.14 µM
